Entries after “also recorded” stand apart in the source; their conditions may differ.
Columns and labels:
Tubulin protein = target: T1, Tubulin protein (Sus scrofa, UniProt P02550+P02554); experiment: In vitro tubulin polymerization assay (turbidity at 350 nm); assay type: biochemical, porcine; details: 20 minutes, 37° C.
T1 construct: Tubulin protein (>99% pure, extracted from porcine brain); from tissue; host or cells: porcine brain
Protocol: Tubulin protein (>99% pure, extracted from porcine brain) was reconstituted in buffer solution (80 mM PIPES pH 6.9, 2 mM MgCl2, 0.5 mM EGTA, and 10% (v/v) glycerol) to a concentration of 1 mg/mL. 100 μL of this tubulin solution was added per well of a black, 96-well plate, which had been warmed to 37° C. prior to the experiment. This was followed by the addition of either guanosine triphosphate (GTP), Paclitaxel (PTX), or ODDA-PTX-CyD, where the final concentration in each respective well was 1 mM GTP, 10 μM PTX, or 10 μM ODDA-PTX-CyD. Changes in turbidity of the samples were monitored via 96-well plate reader at 350 nm, where a recorded increase in optical density supports the formation of microtubules in solution. Each set of conditions were measured in triplicate and monitored over 20 minutes at 37° C.

[1] = Aqueous solubility tests in milliQ water or dPBS
Protocol: Solubility Tests: To verify ODDA-PTX aqueous solubility, characterization methods in milliQ water or dPBS were performed.

T1 sequence (P02554 whole entry): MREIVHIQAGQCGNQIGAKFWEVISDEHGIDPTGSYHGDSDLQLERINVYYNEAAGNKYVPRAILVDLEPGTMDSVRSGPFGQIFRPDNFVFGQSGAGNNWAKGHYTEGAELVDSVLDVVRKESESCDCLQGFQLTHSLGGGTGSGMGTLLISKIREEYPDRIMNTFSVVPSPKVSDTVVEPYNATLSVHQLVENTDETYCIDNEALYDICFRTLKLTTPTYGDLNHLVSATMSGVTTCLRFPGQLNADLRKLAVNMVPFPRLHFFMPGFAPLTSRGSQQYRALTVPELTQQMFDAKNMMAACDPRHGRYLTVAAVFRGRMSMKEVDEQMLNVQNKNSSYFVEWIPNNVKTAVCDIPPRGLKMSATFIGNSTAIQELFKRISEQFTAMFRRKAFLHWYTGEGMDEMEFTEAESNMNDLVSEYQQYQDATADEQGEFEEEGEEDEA
T1 sequence (P02550 whole entry): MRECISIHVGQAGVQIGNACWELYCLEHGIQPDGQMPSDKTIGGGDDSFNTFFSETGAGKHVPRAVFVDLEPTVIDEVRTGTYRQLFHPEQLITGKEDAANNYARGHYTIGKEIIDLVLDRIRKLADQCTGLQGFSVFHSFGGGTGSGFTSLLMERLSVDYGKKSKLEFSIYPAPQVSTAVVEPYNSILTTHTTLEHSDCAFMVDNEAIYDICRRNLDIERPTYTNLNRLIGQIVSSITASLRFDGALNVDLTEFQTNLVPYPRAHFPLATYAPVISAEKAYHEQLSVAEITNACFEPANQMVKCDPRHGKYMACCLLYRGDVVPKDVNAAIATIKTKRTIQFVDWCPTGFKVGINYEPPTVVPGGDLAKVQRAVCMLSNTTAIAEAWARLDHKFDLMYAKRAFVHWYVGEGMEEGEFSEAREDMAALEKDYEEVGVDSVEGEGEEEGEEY

In the case of `CC(=O)O[C@H]1C(=O)[C@@]2(C)[C@H]([C@H](OC(=O)c3ccccc3)[C@]3(O)C[C@H](OC(=O)[C@H](O)[C@@H](NC(=O)c4ccccc4)c4ccccc4)C(C)=C1C3(C)C)[C@]1(OC(C)=O)CO[C@@H]1C[C@@H]2O` [paclitaxel], the “change in optical density (microtubule formation)” value (Tubulin protein; 10 μM) is reported as “resulted in the formation of microtubules”.

In the case of `CC(=O)O[C@H]1C(=O)[C@@]2(C)[C@H]([C@H](OC(=O)c3ccccc3)[C@]3(O)C[C@H](OC(=O)[C@H](OC(=O)CCCCCCCCCCCCCCCCC(=O)O)[C@@H](NC(=O)c4ccccc4)c4ccccc4)C(C)=C1C3(C)C)[C@]1(OC(C)=O)CO[C@@H]1C[C@@H]2O` [ODDA-PTX, 1,18-octadecandioic acid-paclitaxel], the “solubility in water or buffer alone (in words)” value ([1]; water alone / buffer alone) is reported as “insolubility; also recorded: not soluble in water alone” and the “aqueous solubility with respect to ODDA-PTX” value ([1]; with respect to ODDA-PTX) is reported as 21 µg/mL.

In the case of `Nc1nc2c(ncn2[C@@H]2O[C@H](COP(=O)(O)OP(=O)(O)OP(=O)(O)O)[C@@H](O)[C@H]2O)c(=O)[nH]1` [GTP, guanosine triphosphate], the “change in optical density (microtubule formation)” value (Tubulin protein; 1 mM GTP) is reported as “did not portray significant increases in optical density”.
